Literature values in patent publication US20160235839A1, “CALCIUM FLUORIDE COMPOSITIONS” (priority 2013, published 2016).

Test system: chicken red blood cells
Details: no cholesterol

QS21
Hemolytic activity of QS21 by itself: too hemolytic
